{"source": "patent US11980596B2", "about": "(priority 2017, dated 2024)", "key": {"[1]": {"system": "subjects with MDD at imminent risk for suicide", "assay": "SIBAT clinical global judgment of suicide risk ([…]2001)", "assay_type": "in vivo, human", "description": "The clinical global judgment of suicide risk (Module 8) summarizes clinician overall judgment of suicide risk as derived from information gathered from the full SIBAT tool. It operates like numerous other CGI-severity scales that have been used in other psychiatric studies. Change in the clinical global judgment of suicide risk is designed to directly identify clinical meaningful changes in suicidal ideation and to permit classification of suicide risk.\nThe analysis of the change in SIBAT score was based on an ANCOVA model on ranks of change in SIBAT with treatment, antidepressant therapy, and analysis center as factors, and baseline value (unranked) as a covariate. There was a significant difference (two-sided […]) between the two treatment groups when comparing the mean rank of change from baseline at Day 1: 4-hours postdose in favor of esketamine 84 mg See, Table 58. See, FIG. 39. […] This difference was not evident at the Day 25 DB endpoint. See, FIG. 40, which is based on LOCF data and analyzed using Cochran-Mantel-Haenszel test controlling for analysis center and antidepressant therapy."}, "subjects with TRD": {"system": "subjects with TRD", "settings": "post dose", "quoted_text": "The Clinician Administered Dissociative States Scale (CADSS) was measured prior to the start of each dose, at 40 minutes, and 1.5 hours postdose."}, "[2]": {"system": "subjects with MDD at imminent risk for suicide", "assay": "MADRS total score, sustained response (Study […]2001)", "assay_type": "in vivo, human", "description": "Primary efficacy variable/Primary Time point: Change from baseline (Day 1, predose) to Day 1, 4-hours postdose in MADRS total score. The MADRS consists of 10 items that cover all of the core depressive symptoms, with each item scoring from 0 (item is not present or is normal) to 6 (severe or continuous presence of the symptom). A higher score represents a more severe condition.\nThe primary efficacy endpoint is the change in MADRS total score from baseline to Day 1: 4-hours postdose. MADRS total scores range from 0 to 60. […] As this is a phase 2a proof-of-concept study, statistical significance is based on a two-sided alpha level of 0.20. All p-values presented in this document are two-sided.\nSustained response is defined as at least 50% reduction from baseline in MADRS total score with onset on Day 1: 4 hours postdose that is maintained through the end of the double-blind phase (Day 25). Four subjects in the esketamine 84 mg group and 2 subjects in the placebo group had sustained response throughout the double-blind phase."}, "[3]": {"system": "subjects with MDD at imminent risk for suicide", "assay": "Beck Hopelessness Scale (BHS) ([…]2001)", "assay_type": "in vivo, human", "settings": "for BHS total score: change vs placebo: 84 mg", "description": "The BHS is a self-reported measure to assess one's level of negative expectations or pessimism regarding the future. It consists of 20 true-false items that examine the respondent's attitude over the past week by either endorsing a pessimistic statement or denying an optimistic statement. For every statement, each response is assigned a score of 0 or 1. The total BHS score is a sum of item responses and ranges from 0 to 20, with a higher score representing a higher level of hopelessness."}, "[4]": {"system": "patients with treatment-resistant depression (TRD)", "assay": "GAD-7 (Example 7)", "assay_type": "in vivo, human", "experimental": "Overall illness severity was assessed on the Clinical Global Impression of Severity (CGI-S) scale (Guy, “ECDEU Assessment Manual for Psychopharmacology—Revised (DHEW Publ No ADM 76-338)”, Rockville, Md.: U.S. Department of Health, Education, and Welfare, Public Health Service, Alcohol, Drug Abuse, and Mental Health Administration, NIMH Psychopharmacology Research Branch, Division of Extramural Research Programs; 1976, pp 218-222). Participants assessed their severity of anxiety on the Generalized Anxiety Disorder 7-item (GADS-7) Scale (See, Tables 157 and 158). See, Spitzer, “A brief measure for assessing generalized anxiety disorder—the GAD-7”, Arch. Intern. Med., 2006, 166(10): 1092-1097."}, "[5]": {"system": "patients with treatment-resistant depression (TRD)", "assay": "Vital signs: blood pressure and heart rate (Example 7)", "assay_type": "in vivo, human", "settings": "post-dose", "experimental": "(§1) Adverse events were monitored throughout the study. Other safety assessments (i.e., laboratory tests, vital signs, physical examination) were performed at pre-specified time points. Vital signs, the Clinician Administered Dissociative States Scale (CADSS; Bremner, “Measurement of dissociative states with the clinician-administered dissociative states scale (CADSS)”, J. Traumatic Stress, 1998, 11(1):125-136), and the 4-item positive symptom subscale from the Brief Psychiatric Rating Scale (BPRS; Overall, “The Brief Psychiatric Rating Scale. Psychological Reports”, 1962, 10:799-812) were assessed pre-dose, at 40 minutes, and 2 hours post-dose."}, "[6]": {"system": "subjects with MDD at imminent risk for suicide", "settings": "post dose", "quoted_text": "The CADSS was measured prior to the start of each dose, at 40 minutes, 2 hours, and 4 hours postdose."}, "[7]": {"system": "patients with treatment-resistant depression (TRD)", "assay": "CADSS (Example 7)", "settings": "human, in vivo, other: intranasal", "experimental": "as §1"}, "[8]": {"assay": "Fertility study in male and female rats", "assay_type": "in vivo, rat", "settings": "both sexes, rat, in vivo, inhaled or intranasal; read-out: NOAEL for mating and fertility", "experimental": "(§2) The No Observed Adverse Effect Level (NOAEL) for mating and fertility is 45 mg/kg/day which is 0.6 times the esketamine exposures at MRHD of 84 mg/day."}, "male and female rats": {"system": "male and female rats", "assay": "Fertility study in male and female rats", "assay_type": "in vivo, rat", "experimental": "as §2"}, "[9]": {"settings": "esketamine 84 mg, LOCF, ITT, N = 35"}, "[10]": {"settings": "esketamine 84 mg, LOCF, ITT, N = 35, negative change = improvement"}, "[11]": {"settings": "esketamine 84 mg, predose Day 1, ITT, N = 35"}, "[12]": {"settings": "esketamine 84 mg minus placebo, ANCOVA LOCF"}}, "data": [{"smiles": "CN[C@]1(c2ccccc2Cl)CCCCC1=O", "note": "[esketamine, (S)-2-(2-chlorophenyl)-2-(methylamino)cyclohexanone]", "values": [{"measurement": "SIBAT Clinical Global Judgment of Suicide Risk: change vs placebo", "setting": "[1]; 84 mg, Day 1: 4-hours postdose and Day 2", "result": "statistically superior"}, {"measurement": "SIBAT Clinical Global Judgment of Suicide Risk, Day 1 (DB): 4H, Median (Range)", "setting": "[1]; esketamine 84 mg, LOCF, ITT, N = 33", "result": "5.0 (0; 6)"}, {"measurement": "SIBAT Clinical Global Judgment of Suicide Risk, Change from Baseline to Day 1 (DB): 4H, Median (Range)", "setting": "[1]; esketamine 84 mg, LOCF, ITT, N = 33, negative change = improvement", "result": "0.0 (−6; 1)"}, {"measurement": "SIBAT Clinical Global Judgment of Suicide Risk, Day 2 (DB), Median (Range)", "setting": "[1]; [9]", "result": "5.0 (0; 6)"}, {"measurement": "SIBAT Clinical Global Judgment of Suicide Risk, Change from Baseline to Day 2 (DB), Median (Range)", "setting": "[1]; [10]", "result": "−1.0 (−6; 1)"}, {"measurement": "SIBAT Clinical Global Judgment of Suicide Risk, Baseline (DB), Median (Range)", "setting": "[1]; [11]", "result": "6.0 (5; 6)"}, {"measurement": "Dissociative/perceptual change symptoms (CADSS) resolved by", "setting": "subjects with TRD", "result": "≤ 1.5", "unit": "h"}, {"measurement": "MADRS: least-square mean difference from placebo", "setting": "[2]; 84 mg, Day 1, 4-hours postdose, ANCOVA", "result": "−5.3 (2.10)"}, {"measurement": "MADRS total score, change to Day 1 (DB): 4 H, Diff. of LS Means (SE)", "setting": "[2]; [12]", "result": "−5.3 (2.10)"}, {"measurement": "MADRS total score, change to Day 2 (DB), Diff. of LS Means (SE)", "setting": "[2]; [12]", "result": "−7.2 (2.85)"}, {"measurement": "MADRS total score, change to End Point (DB), Diff. of LS Means (SE)", "setting": "[2]; [12]", "result": "−4.5 (3.14)"}, {"measurement": "MADRS total score, Day 1 (DB): 4 H, Median (Range)", "setting": "[2]; [9]", "result": "23.0 (7; 48)"}, {"measurement": "MADRS total score, Day 2 (DB), Median (Range)", "setting": "[2]; [9]", "result": "18.0 (3; 42)"}, {"measurement": "MADRS total score, End Point (DB), Median (Range)", "setting": "[2]; [9]", "result": "8.0 (0; 44)"}, {"measurement": "MADRS total score, Change from Baseline to Day 1 (DB): 4 H, Median (Range)", "setting": "[2]; [10]", "result": "−14.0 (−32; 1)"}, {"measurement": "MADRS total score, Change from Baseline to Day 2 (DB), Median (Range)", "setting": "[2]; [10]", "result": "−19.0 (−41; 1)"}, {"measurement": "MADRS total score, Change from Baseline to End Point (DB), Median (Range)", "setting": "[2]; [10]", "result": "−25.0 (−46; 13)"}, {"measurement": "MADRS total score, Baseline (DB), Median (Range)", "setting": "[2]; [11]", "result": "38.0 (27; 49)"}, {"measurement": "BHS total score: change vs placebo", "setting": "[3]; Day 1: 4-hours postdose", "result": "no statistically significant difference"}, {"measurement": "BHS total score: change vs placebo", "setting": "[3]; End Point (DB)", "result": "statistically superior"}, {"measurement": "BHS total score, change to Day 1 (DB): 4H, Diff. of LS Means (SE)", "setting": "[3]; [12]", "result": "−1.5 (1.47)"}, {"measurement": "BHS total score, change to End Point (DB), Diff. of LS Means (SE)", "setting": "[3]; [12]", "result": "−2.3 (1.66)"}, {"measurement": "BHS total score, Day 1 (DB): 4H, Median (Range)", "setting": "[3]; [9]", "result": "14.0 (0; 20)"}, {"measurement": "BHS total score, End Point (DB), Mean (SD)", "setting": "[3]; [9]", "result": "6.2 (5.96)"}, {"measurement": "BHS total score, End Point (DB), Median (Range)", "setting": "[3]; [9]", "result": "4.0 (0; 20)"}, {"measurement": "BHS total score, Change from Baseline to Day 1 (DB): 4H, Mean (SD)", "setting": "[3]; [10]", "result": "−4.1 (5.63)"}, {"measurement": "BHS total score, Change from Baseline to Day 1 (DB): 4H, Median (Range)", "setting": "[3]; [10]", "result": "−2.0 (−16; 2)"}, {"measurement": "BHS total score, Change from Baseline to End Point (DB), Median (Range)", "setting": "[3]; [10]", "result": "−11.0 (−19; 0)"}, {"measurement": "BHS total score, Baseline (DB), Median (Range)", "setting": "[3]; [11]", "result": "17.0 (9; 20)"}, {"measurement": "GAD-7 change from baseline, LS mean (SE)", "setting": "[4]; Period 1, esketamine 28 mg intranasal", "result": "−1.5 (1.34)"}, {"measurement": "GAD-7 change from baseline, LS mean (SE)", "setting": "[4]; Period 1, esketamine 56 mg intranasal", "result": "−3.1 (1.34)"}, {"measurement": "GAD-7 change from baseline, LS mean (SE)", "setting": "[4]; Period 1, esketamine 84 mg intranasal", "result": "−5.1 (1.30)"}, {"measurement": "GAD-7 change from baseline, LS mean (SE)", "setting": "[4]; Period 2, esketamine 28 mg intranasal", "result": "−1.6 (0.87)"}, {"measurement": "GAD-7 change from baseline, LS mean (SE)", "setting": "[4]; Period 2, esketamine 56 mg intranasal", "result": "1.0 (0.98)"}, {"measurement": "GAD-7 change from baseline, LS mean (SE)", "setting": "[4]; Period 2, esketamine 84 mg intranasal", "result": "−0.9 (1.02)"}, {"measurement": "Elevated blood pressure returned to the normal range by", "setting": "[5]", "result": "≤ 2", "unit": "h"}, {"measurement": "Dissociative and perceptual change symptoms (CADSS) resolved by", "setting": "[6]", "result": "≤ 2", "unit": "h"}, {"measurement": "Perceptual changes/dissociative symptoms (CADSS): time of peak", "setting": "[7]", "result": "30 to 40", "unit": "min"}, {"measurement": "NOAEL", "setting": "[8]", "result": 45, "unit": "mg/kg/day"}, {"measurement": "Mean AUC exposure, multiple of the MRHD of 84 mg/day", "setting": "male and female rats; 4.5 mg/kg/day intranasal", "result": "approximately 0.05 times"}, {"measurement": "Mean AUC exposure, multiple of the MRHD of 84 mg/day", "setting": "male and female rats; 15 mg/kg/day intranasal", "result": "~0.3", "unit": "times"}, {"measurement": "Mean AUC exposure, multiple of the MRHD of 84 mg/day", "setting": "male and female rats; 45 mg/kg/day intranasal", "result": "~0.6", "unit": "times"}]}]}
